From US8192962B2, “Processes for detecting toxic substances” (Daikin Industries, Ltd., priority 2001, dated 2012)

Tested on: Metabolism protein genes
Assay: DNA chip mRNA expression in yeast, metabolism protein genes (Table 7)
Format: cell-based, Saccharomyces cerevisiae S288C
In short: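 Chemical exposure: 2 h, log-phase S. cerevisiae S288C, YPD, 25° C., dose set to inhibit growth without death. Profiling: mRNA labeled by reverse transcription with Cy3- or Cy5-dUTP, hybridized to whole-genome array. Output: fluorescence ratio against untreated culture.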

Na2As [(1)]
1.6: level of expressed mRNA in the presence/in the absence of chemical substance (yeast gene YKL060C) | The level of expressed mRNA in the presence of chemical substance/The level of expressed mRNA in the absence of chemical substance (yeast gene YMR271C)
1.0: The level of expressed mRNA in the presence of chemical substance/The level of expressed mRNA in the absence of chemical substance (yeast gene YKL035W) | The level of expressed mRNA in the presence of chemical substance/The level of expressed mRNA in the absence of chemical substance (yeast gene YKL104C) | The level of expressed mRNA in the presence of chemical substance/The level of expressed mRNA in the absence of chemical substance (yeast gene YLL058W) | level of expressed mRNA in the presence/in the absence of chemical substance (yeast gene YLR056W) | The level of expressed mRNA in the presence of chemical substance/The level of expressed mRNA in the absence of chemical substance (yeast gene YNL106C) | The level of expressed mRNA in the presence of chemical substance/The level of expressed mRNA in the absence of chemical substance (yeast gene YNR019W) | The level of expressed mRNA in the presence of chemical substance/The level of expressed mRNA in the absence of chemical substance (yeast gene YOL126C) | The level of expressed mRNA in the presence of chemical substance/The level of expressed mRNA in the absence of chemical substance (yeast gene YOL153C) | level of expressed mRNA in the presence/in the absence of chemical substance (yeast gene YOR142W) | The level of expressed mRNA in the presence of chemical substance/The level of expressed mRNA in the absence of chemical substance (yeast gene YPL017C)
0.6: The level of expressed mRNA in the presence of chemical substance/The level of expressed mRNA in the absence of chemical substance (yeast gene YKL215C) | The level of expressed mRNA in the presence of chemical substance/The level of expressed mRNA in the absence of chemical substance (yeast gene YMR296C) | The level of expressed mRNA in the presence of chemical substance/The level of expressed mRNA in the absence of chemical substance (yeast gene YNR033W)
0.5: level of expressed mRNA in the presence/in the absence of chemical substance (yeast gene YMR205C)
1.4: The level of expressed mRNA in the presence of chemical substance/The level of expressed mRNA in the absence of chemical substance (yeast gene YLR273C) | level of expressed mRNA in the presence/in the absence of chemical substance (yeast gene YMR083W) | level of expressed mRNA in the presence/in the absence of chemical substance (yeast gene YOL108C) | level of expressed mRNA in the presence/in the absence of chemical substance (yeast gene YOR178C)
1.5: The level of expressed mRNA in the presence of chemical substance/The level of expressed mRNA in the absence of chemical substance (yeast gene YML054C) | The level of expressed mRNA in the presence of chemical substance/The level of expressed mRNA in the absence of chemical substance (yeast gene YNL231C)
5.3: The level of expressed mRNA in the presence of chemical substance/The level of expressed mRNA in the absence of chemical substance (yeast gene YPR167C)
0.8: level of expressed mRNA in the presence/in the absence of chemical substance (yeast gene YLR044C) | The level of expressed mRNA in the presence of chemical substance/The level of expressed mRNA in the absence of chemical substance (yeast gene YML100W) | level of expressed mRNA in the presence/in the absence of chemical substance (yeast gene YMR323W) | The level of expressed mRNA in the presence of chemical substance/The level of expressed mRNA in the absence of chemical substance (yeast gene YNL045W) | The level of expressed mRNA in the presence of chemical substance/The level of expressed mRNA in the absence of chemical substance (yeast gene YNL322C) | The level of expressed mRNA in the presence of chemical substance/The level of expressed mRNA in the absence of chemical substance (yeast gene YOL058W) | level of expressed mRNA in the presence/in the absence of chemical substance (yeast gene YOR002W) | The level of expressed mRNA in the presence of chemical substance/The level of expressed mRNA in the absence of chemical substance (yeast gene YOR099W) | level of expressed mRNA in the presence/in the absence of chemical substance (yeast gene YOR108W) | The level of expressed mRNA in the presence of chemical substance/The level of expressed mRNA in the absence of chemical substance (yeast gene YOR130C)
1.1: The level of expressed mRNA in the presence of chemical substance/The level of expressed mRNA in the absence of chemical substance (yeast gene YLR348C) | level of expressed mRNA in the presence/in the absence of chemical substance (yeast gene YLR354C) | The level of expressed mRNA in the presence of chemical substance/The level of expressed mRNA in the absence of chemical substance (yeast gene YNL104C) | level of expressed mRNA in the presence/in the absence of chemical substance (yeast gene YNL192W) | The level of expressed mRNA in the presence of chemical substance/The level of expressed mRNA in the absence of chemical substance (yeast gene YNL332W) | The level of expressed mRNA in the presence of chemical substance/The level of expressed mRNA in the absence of chemical substance (yeast gene YNR059W) | level of expressed mRNA in the presence/in the absence of chemical substance (yeast gene YOL086C) | level of expressed mRNA in the presence/in the absence of chemical substance (yeast gene YOL116W) | level of expressed mRNA in the presence/in the absence of chemical substance (yeast gene YOL156W) | level of expressed mRNA in the presence/in the absence of chemical substance (yeast gene YOR103C) | level of expressed mRNA in the presence/in the absence of chemical substance (yeast gene YOR251C) | level of expressed mRNA in the presence/in the absence of chemical substance (yeast gene YOR348C) | level of expressed mRNA in the presence/in the absence of chemical substance (yeast gene YPR113W)
0.9: level of expressed mRNA in the presence/in the absence of chemical substance (yeast gene YKL148C) | The level of expressed mRNA in the presence of chemical substance/The level of expressed mRNA in the absence of chemical substance (yeast gene YKL213C) | level of expressed mRNA in the presence/in the absence of chemical substance (yeast gene YKR034W) | level of expressed mRNA in the presence/in the absence of chemical substance (yeast gene YLR058C) | level of expressed mRNA in the presence/in the absence of chemical substance (yeast gene YLR089C) | level of expressed mRNA in the presence/in the absence of chemical substance (yeast gene YLR284C) | The level of expressed mRNA in the presence of chemical substance/The level of expressed mRNA in the absence of chemical substance (yeast gene YLR300W) | The level of expressed mRNA in the presence of chemical substance/The level of expressed mRNA in the absence of chemical substance (yeast gene YLR307W) | level of expressed mRNA in the presence/in the absence of chemical substance (yeast gene YML022W) | The level of expressed mRNA in the presence of chemical substance/The level of expressed mRNA in the absence of chemical substance (yeast gene YML070W) | level of expressed mRNA in the presence/in the absence of chemical substance (yeast gene YNL025C) | level of expressed mRNA in the presence/in the absence of chemical substance (yeast gene YOR128C) | The level of expressed mRNA in the presence of chemical substance/The level of expressed mRNA in the absence of chemical substance (yeast gene YOR347C) | level of expressed mRNA in the presence/in the absence of chemical substance (yeast gene YPL135W) | The level of expressed mRNA in the presence of chemical substance/The level of expressed mRNA in the absence of chemical substance (yeast gene YPR026W) | level of expressed mRNA in the presence/in the absence of chemical substance (yeast gene YPR183W)
10.6: The level of expressed mRNA in the presence of chemical substance/The level of expressed mRNA in the absence of chemical substance (yeast gene YJR155W)
1.3: The level of expressed mRNA in the presence of chemical substance/The level of expressed mRNA in the absence of chemical substance (yeast gene YKL152C) | level of expressed mRNA in the presence/in the absence of chemical substance (yeast gene YLR081W) | The level of expressed mRNA in the presence of chemical substance/The level of expressed mRNA in the absence of chemical substance (yeast gene YLR180W) | level of expressed mRNA in the presence/in the absence of chemical substance (yeast gene YMR011W) | The level of expressed mRNA in the presence of chemical substance/The level of expressed mRNA in the absence of chemical substance (yeast gene YMR020W) | The level of expressed mRNA in the presence of chemical substance/The level of expressed mRNA in the absence of chemical substance (yeast gene YNL012W) | level of expressed mRNA in the presence/in the absence of chemical substance (yeast gene YPR165W)
10.1: The level of expressed mRNA in the presence of chemical substance/The level of expressed mRNA in the absence of chemical substance (yeast gene YOL165C)
0.7: level of expressed mRNA in the presence/in the absence of chemical substance (yeast gene YKL157W) | level of expressed mRNA in the presence/in the absence of chemical substance (yeast gene YLR006C) | level of expressed mRNA in the presence/in the absence of chemical substance (yeast gene YLR304C) | level of expressed mRNA in the presence/in the absence of chemical substance (yeast gene YLR372W) | The level of expressed mRNA in the presence of chemical substance/The level of expressed mRNA in the absence of chemical substance (yeast gene YMR008C) | level of expressed mRNA in the presence/in the absence of chemical substance (yeast gene YMR015C) | The level of expressed mRNA in the presence of chemical substance/The level of expressed mRNA in the absence of chemical substance (yeast gene YMR189W) | level of expressed mRNA in the presence/in the absence of chemical substance (yeast gene YMR261C) | The level of expressed mRNA in the presence of chemical substance/The level of expressed mRNA in the absence of chemical substance (yeast gene YNL169C) | level of expressed mRNA in the presence/in the absence of chemical substance (yeast gene YOR085W) | level of expressed mRNA in the presence/in the absence of chemical substance (yeast gene YOR176W) | The level of expressed mRNA in the presence of chemical substance/The level of expressed mRNA in the absence of chemical substance (yeast gene YOR336W) | level of expressed mRNA in the presence/in the absence of chemical substance (yeast gene YPL028W)
1.2: The level of expressed mRNA in the presence of chemical substance/The level of expressed mRNA in the absence of chemical substance (yeast gene YKL091C) | The level of expressed mRNA in the presence of chemical substance/The level of expressed mRNA in the absence of chemical substance (yeast gene YLR299W) | level of expressed mRNA in the presence/in the absence of chemical substance (yeast gene YPL148C)
8.6: The level of expressed mRNA in the presence of chemical substance/The level of expressed mRNA in the absence of chemical substance (yeast gene YNL331C)
1.9: The level of expressed mRNA in the presence of chemical substance/The level of expressed mRNA in the absence of chemical substance (yeast gene YMR105C) | level of expressed mRNA in the presence/in the absence of chemical substance (yeast gene YPL057C)
